The text below walks through data of ChEMBL document CHEMBL5236616, “Chlorinated Naringenin Analogues as Potential Inhibitors of Transthyretin Amyloidogenesis” (J Med Chem, 2022).

Series [1] can be described thus: Drug concentration in rat plasma at 1.82 mg/kg, po. The series is classed as ADME, organism-based. The conditions noted are these: in vivo.
Series [2] relates to Transthyretin (Homo sapiens), P02766 [V50M]. Kind of series: Inhibition of acid mediated TTR V30M mutant aggregation (unknown origin) expressed in Escherichia coli preincubated for 30 mins followed by acid stimulation and measured after 96 hrs by fluorescence spectrophotometer analysis. The following applies: time 96.5 hrs.
The next series deals with Transthyretin (Homo sapiens, UniProt P02766, V50M). Kind of series: Binding affinity to TTR V30M mutant (unknown origin) expressed in Escherichia coli by ITC assay. On the technique in general: ITC needs no label: the signal is the heat of the interaction.
In series [3] the test system is Transthyretin (Homo sapiens), P02766 [V50M]. Kind of series: Binding affinity to TTR V30M mutant (unknown origin) expressed in Escherichia coli assessed as gibbs free energy change by ITC assay.
For series [4] the test system is unchanged. Kind of series: Binding affinity to TTR V30M mutant (unknown origin) expressed in Escherichia coli assessed as change in enthalpy by ITC assay.
Series [5] shares this test system. Kind of series: Binding affinity to TTR V30M mutant (unknown origin) expressed in Escherichia coli assessed as change in entropy by ITC assay.
For series [6], the target named is Transthyretin (Homo sapiens) (UniProt P02766). Kind of series: Displacement of (E)-S-phenyl 3(4-hydroxy-3,5-dimethylstyryl)benzothioate from human plasma TTR at 20 uM incubated for 6 hrs by fluorescence based assay. The class given is cell-free.
Series [7] can be described thus: Aqueous solubility of compound at pH 1.2 incubated for 4 hrs. The class given is physicochemical. The conditions noted are these: aqueous medium.
Series [8] can be described thus: Aqueous solubility of compound at pH 6.8 incubated for 4 hrs. The series is classed as physicochemical. The conditions noted are these: aqueous medium.
Series [9] is described as follows: Permeability of compound at 10 uM after 4 hrs by LC-MS/MS based PAMPA. The series is classed as ADME. The conditions noted are these: read-out: permeability.
Series [10] in a line: Plasma protein binding in rat assessed as unbound fraction at 1 uM incubated for 4 hrs by rapid equilibrium dialysis method. The series is classed as ADME, cell-free. In general terms: In equilibrium dialysis only unbound substance equilibrates across the membrane.
A short description of series [11]: Drug concentration in Sprague-Dawley rat plasma at 1 mg/kg, iv after 8 hrs by LC-MS/MS anlaysis. The series is classed as ADME, organism-based.
The nature of series [12]: Drug concentration in Sprague-Dawley rat plasma at 1 mg/kg, po after 8 hrs by LC-MS/MS anlaysis. The class given is ADME, organism-based.
Series [13] is described as follows: Drug concentration in Sprague-Dawley rat eye ball at 1 mg/kg, iv after 8 hrs by LC-MS/MS anlaysis. The class given is ADME, organism-based, Eyeball of camera-type eye. The following applies: read-out: Ct.
A short description of series [14]: Drug concentration in Sprague-Dawley rat eye ball at 1 mg/kg, po after 8 hrs by LC-MS/MS anlaysis. The series is classed as ADME, organism-based, Eyeball of camera-type eye. The conditions noted are these: read-out: Ct.
Series [15] in a line: Drug concentration in Sprague-Dawley rat brain at 1 mg/kg, iv after 8 hrs by LC-MS/MS anlaysis. The series is classed as ADME, organism-based. The following applies: read-out: Ct.
Series [16] in a line: Drug concentration in Sprague-Dawley rat brain at 1 mg/kg, po after 8 hrs by LC-MS/MS anlaysis. The series is classed as ADME, organism-based. The following applies: read-out: Ct.
Series [17] can be described thus: Ratio of drug concentration in Sprague-Dawley rat eye ball to plasma at 1 mg/kg, iv after 8 hrs by LC-MS/MS analysis. The class given is ADME, organism-based.
Series [18] in a line: Ratio of drug concentration in Sprague-Dawley rat eye ball to plasma at 1 mg/kg, po after 8 hrs by LC-MS/MS analysis. The class given is ADME, organism-based.
Series [19] in a line: Ratio of drug concentration in Sprague-Dawley rat brain to plasma at 1 mg/kg, iv after 8 hrs by LC-MS/MS analysis. The class given is ADME, organism-based.
A short description of series [20]: Ratio of drug concentration in Sprague-Dawley rat brain to plasma at 1 mg/kg, po after 8 hrs by LC-MS/MS analysis. The series is classed as ADME, organism-based.

Values after ≈ are worked out from the molar mass of the structure shown. Active and inactive are the calls of the source. The rule behind the calls is not given here.

In turn, `O=C1C[C@@H](c2ccc(O)cc2)Oc2cc(O)cc(O)c21` [NARINGENIN] gave a concentration in series [1] of 1500 nM. The same compound had an IC50 in [2] of 12 µM. This compound also returned a dissociation constant Kd on Transthyretin of 1.63 µM. Also, in series [3], the deltaG was -7.9 kcal/mol. Further, the deltaH in series [4] is -10.9 kcal/mol. For the same compound, in [5], the TdeltaS worked out at 1.32 kcal/mol.

In the case of `O=C1CC(c2ccc(O)c(Cl)c2)Oc2cc(O)cc(O)c21` (stereo not given), in [6], the outcome was Active. The IC50 in series [2] stood at 5.3 µM. Also, the Kd on Transthyretin was 0.403 µM. Moreover, the deltaG in [3] is -8.73 kcal/mol. Moreover, the deltaH in [4] was -13.2 kcal/mol. For the same compound, the TdeltaS in [5] came to 4.47 kcal/mol.

Consider `O=C1CC(c2cc(Cl)cc(Cl)c2)Oc2cc(O)cc(O)c21` (stereo not given), for which the outcome in series [6] was Active. The same compound came in with an IC50 in series [2] of 3.8 µM. On Transthyretin, this compound showed a Kd of 0.006 µM. In addition, in series [3], the deltaG is -13.6 kcal/mol. For the same compound, the deltaH in [4] is -7.42 kcal/mol. Moreover, the TdeltaS in [5] is -6.17 kcal/mol.

Regarding `O=C1CC(c2ccc(O)c(Cl)c2)Oc2cc(O)ccc21` (stereo not given), the IC50 in series [2] is 6 µM.

For `O=C1CC(c2cc(Cl)c(O)c(Cl)c2)Oc2cc(O)ccc21` (stereo not given), the outcome in series [6] was Active. The compound further yielded an IC50 in series [2] of 4.6 µM. At Transthyretin, binding was put at a Kd of 0.026 µM. Moreover, in [3], the deltaG was -10.4 kcal/mol. The deltaH in series [4] was -13.2 kcal/mol. Besides, the TdeltaS in series [5] was 2.78 kcal/mol.

Consider `O=C1CC(c2cc(Cl)c(O)c(Cl)c2)Oc2cc(O)cc(O)c21` (stereo not given), for which the outcome in series [6] was Active. The IC50 in [2] is 3.7 µM. This compound came in with a Kd at Transthyretin of 0.016 µM. Also, the deltaG in series [3] is -10.7 kcal/mol. For the same compound, in [4], the deltaH is -16.7 kcal/mol. Also, the TdeltaS in series [5] was determined as 6 kcal/mol. Further, the solubility at 4 h in [7] stood at 0.66 µM (≈ 0.225 µg/mL); in series [8], 28.3 µM (≈ 9.65 µg/mL). The Papp at 4 h, 10 µM in series [9] is > 50 ×10⁻⁶ cm/s. Moreover, the Fu in series [10] is listed as 0.081%. Moreover, the concentration at 8 h came out at 717 nM in [11]; 267 nM in [12]; 150 nM in series [13]; 37.1 nM in [14]; 53.1 nM in [15]; 15.6 nM in series [16]. Moreover, the partition ratio (Kp) at 8 h in [17] is 0.209; in series [18], 0.139; in [19] it was 0.074; in [20], 0.058.

With `O=C1CC(c2cc(Cl)c(O)c(Cl)c2)Oc2cccc(O)c21` (stereo not given), the outcome in series [6] was Active. Also, in [2], inhibition was half-maximal at 3.6 µM (IC50). At Transthyretin, the Kd came to 0.013 µM. Further, the deltaG in series [3] is -10.9 kcal/mol. Also, the deltaH in series [4] is -8.61 kcal/mol. Further, the TdeltaS in [5] is -2.28 kcal/mol.

With `O=C1CC(c2ccc(O)c(Cl)c2)Oc2cccc(O)c21` (stereo not given), it took 7.2 µM to reach half-maximal inhibition in series [2] (IC50).

In series [2], `O=C1CC(c2ccc(Cl)cc2)Oc2cc(O)cc(O)c21` (stereo not given) displayed an IC50 of 15 µM.

In series [2], `O=C1CC(c2ccc(O)c(Cl)c2)Oc2ccc(O)cc21` (stereo not given) gave an IC50 of 5.9 µM.

The compound `O=C1CC(c2cc(Cl)c(O)c(Cl)c2)Oc2ccc(O)cc21` (stereo not given) had an IC50 in series [2] of 4.3 µM.

In general, IC50 refers to the midpoint of a concentration-inhibition curve. Read a high IC50 as a need for much substance. Broadly, the Kd is the constant that tells how readily two partners part at equilibrium. High values mean lower affinity, low ones higher affinity. Usually solubility stands for the dissolved amount per volume that the medium holds. Lower therefore signals a poorly soluble substance. In general, Kp refers to the ratio of the level in a tissue or fluid to that in plasma or blood.
